Results on 4 molecules are retold here after paper PMC10878397, “Development of Potent Dual BET/HDAC Inhibitors via Pharmacophore Merging and Structure-Guided Optimization” (ACS Chemical Biology, 2024).

In assay [1] the test system is HCC2429 cells. The assay can be described thus: CellTiter-Glo cell viability assay. The settings on record: Homo sapiens, HCC2429, 72 h; treatment for 3 days. In kind it is cell-based. As to the method: (§1) PDAC cell line PaTu8988T was obtained from ATCC and cultured in Dulbecco’s modified Eagle’s medium (DMEM) containing 10% FBS, 25 mM glucose, […], 1 mM sodium pyruvate, and 1% penicillin–streptomycin. Nut midline carcinoma cell line HCC2429 was kindly provided by Lead Discovery Center GmbH (Dortmund, Germany) and was cultured in RPMI1640 medium containing 10% FBS, 2 mM L-glutamine, and 1% penicillin–streptomycin. Cell line PaTu8988T was authenticated using the Multiplex human Cell line Authentication Test (MCA) by Multiplexion GmbH, and cell line HCC2429 was authenticated using short tandem repeat (STR) profiling.
(§2) The assays were performed using Promega’s CellTiter-Glo Luminescent Cell Viability Assay kit (Cat. #G7571). First, compounds dissolved in DMSO were printed in 96-well plates (Corning) by using a Tecan D300e digital dispenser. Then, cells were seeded into the compound-printed plates using a Thermo Multidrop reagent dispenser. 72 h later, one volume of diluted CellTiter-Glo reagent (1:4 dilution with PBS) was added to individual wells by using the Thermo Multidrop reagent dispenser again. Plates were shaken for 2 min and incubated for 10 min in the dark. Luminescent signals were read by using a Tecan Spark Multimode Microplate Reader. The values were normalized to the DMSO control wells and presented as a percentage of cell viability. Dose–response curves were drawn with GraphPad Prism 8.
Background: Cellular ATP, detected with luciferase, serves as a proxy for viable cell number.

Assay [2] deals with PaTu8988T cells. The assay can be described thus: CellTiter-Glo cell viability assay. In kind it is cell-based. The settings on record: Homo sapiens, PaTu 8988t, 72 h; treatment for 3 days. As to the method:
as §1, §2

Assay [3] has as its target HDAC3 (Homo sapiens, UniProt O15379). The assay can be described thus: NanoBRET target engagement assay (HEK293T). In kind it is cell-based. On the set-up: BRD4 bromodomains and full-length HDACs were obtained as plasmids cloned in-frame with a terminal NanoLuc fusion; host or cells: HEK293T. The settings on record: intact cells. As to the method:
(§3) The assay was performed as described previously.[17],[59] In brief, BRD4 bromodomains and full-length HDACs were obtained as plasmids cloned in-frame with a terminal NanoLuc fusion (Promega). Plasmids were transfected into HEK293T cells using FuGENE HD (Promega, E2312), and proteins were allowed to express for 20 h. […] The corresponding protein-transfected cells were added and reseeded at a density of 2 × 10^5 cells/mL after trypsinization and resuspended in Opti-MEM without phenol red (Life Technologies). The system was allowed to equilibrate for 2 h at 37 °C/5% CO2 prior to BRET measurements. […] For lysed-mode NanoBRET experiments, digitonin (Promega, #G9441) was added as per the manufacturer’s instructions to a final concentration of […].

Assay [4] concerns the target HDAC2 (Homo sapiens, UniProt Q92769). The assay can be described thus: NanoBRET target engagement assay (HEK293T). On the set-up: BRD4 bromodomains and full-length HDACs were obtained as plasmids cloned in-frame with a terminal NanoLuc fusion; host or cells: HEK293T. In kind it is cell-based. As for the experimental part:
as §3
A general note: BRET reads energy transfer from a luciferase to a nearby fluorophore.

Assay [5] has as its target HDAC1 (Homo sapiens, UniProt Q13547). The assay can be described thus: NanoBRET target engagement assay (HEK293T). In kind it is cell-based. On the set-up: BRD4 bromodomains and full-length HDACs were obtained as plasmids cloned in-frame with a terminal NanoLuc fusion; host or cells: HEK293T. As for the experimental part: as §3
The test system of assay [6] is histone H3 K9/K14 acetylation in PaTu8988T cells. The assay can be described thus: Western blot of histone H3 K9/K14 acetylation. In kind it is cell-based. The settings on record: 48 h, 1 μM inhibitor or concentration series. As for the experimental part:
Protein samples were prepared in RIPA buffer (9806S, Cell Signaling Technology) containing a protease inhibitor cocktail (Roche). Proteins were separated in SDS-polyacrylamide gels, transferred to nitrocellulose membranes with a Trans-Blot Turbo Transfer System (Bio-Rad), and incubated with antibodies dissolved in TBS buffer containing 5% BSA and 0.1% Tween20. The following primary antibodies were used: rabbit anti-β-actin (ab8227, Abcam) and rabbit antiacetyl-histone H3 (Lys9/Lys14; 9677, Cell Signaling Technology). Primary antibodies were recognized by a peroxidase-coupled secondary antibody (Jackson), and signals were detected by chemiluminescence.

For assay [7], the target named is BRD4 BD1 (Homo sapiens, UniProt O60885). The assay can be described thus: DSF thermal shift assay. In kind it is binding. Details: purchased in-house (SGC Frankfurt recombinant bromodomain DSF panel). The settings on record: for Mean Tm BRD4 (1), bromodomain panel: selectivity panel, technical triplicates. As to the method:
(§4) The effects of inhibitor binding on the apparent melting temperature of recombinant bromodomains were determined by DSF in a 96-well plate (Starlab) at a protein concentration of 2 μM with 10 μΜ compound in buffer containing 25 mM HEPES, pH 7.5, 150 mM NaCl, and 0.5 mM TCEP. […] Protein unfolding profiles were recorded using an MX3005P real-time qPCR instrument (Agilent; excitation/emission filters = 492/610 nm) while increasing the temperature from 25 to 95 °C at a heating rate of 3 °C/min. Tm values were calculated after fitting the fluorescence curves to the Boltzmann equation. Differences in melting temperature upon compound binding are given as ΔTm = Tm (protein with inhibitor) – Tm (protein with DMSO control). Measurements were performed in triplicates.

Assay [8] has as its target BRD4 BD2 (Homo sapiens, UniProt O60885). The assay can be described thus: DSF thermal shift assay. In kind it is binding. Details: purchased in-house (SGC Frankfurt recombinant bromodomain DSF panel). The settings on record: for Mean Tm BRD4 (2), bromodomain panel: selectivity panel, technical triplicates. As for the experimental part: as §4

Where “and” joins values, the source holds several entries; their conditions need not be identical. Equal values may be shown once. Read-outs that look alike come from different tables or passages of the source.

Sequence of HDAC1 (Q13547 whole entry, the tested form may be a part): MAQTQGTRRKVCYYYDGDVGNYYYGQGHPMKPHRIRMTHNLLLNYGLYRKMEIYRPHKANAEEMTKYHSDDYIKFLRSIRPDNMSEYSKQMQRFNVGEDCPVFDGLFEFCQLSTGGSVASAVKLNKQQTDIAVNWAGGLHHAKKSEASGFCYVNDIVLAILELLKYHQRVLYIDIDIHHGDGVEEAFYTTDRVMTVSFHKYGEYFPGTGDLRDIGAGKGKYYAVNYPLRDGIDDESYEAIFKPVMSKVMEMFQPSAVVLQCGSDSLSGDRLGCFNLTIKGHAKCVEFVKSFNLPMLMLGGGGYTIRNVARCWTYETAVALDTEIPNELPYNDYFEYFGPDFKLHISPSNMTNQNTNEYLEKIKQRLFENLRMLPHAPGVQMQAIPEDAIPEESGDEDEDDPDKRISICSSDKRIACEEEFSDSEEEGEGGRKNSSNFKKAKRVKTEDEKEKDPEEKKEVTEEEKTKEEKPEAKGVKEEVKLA
Sequence of HDAC2 (Q92769 whole entry, the tested form may be a part): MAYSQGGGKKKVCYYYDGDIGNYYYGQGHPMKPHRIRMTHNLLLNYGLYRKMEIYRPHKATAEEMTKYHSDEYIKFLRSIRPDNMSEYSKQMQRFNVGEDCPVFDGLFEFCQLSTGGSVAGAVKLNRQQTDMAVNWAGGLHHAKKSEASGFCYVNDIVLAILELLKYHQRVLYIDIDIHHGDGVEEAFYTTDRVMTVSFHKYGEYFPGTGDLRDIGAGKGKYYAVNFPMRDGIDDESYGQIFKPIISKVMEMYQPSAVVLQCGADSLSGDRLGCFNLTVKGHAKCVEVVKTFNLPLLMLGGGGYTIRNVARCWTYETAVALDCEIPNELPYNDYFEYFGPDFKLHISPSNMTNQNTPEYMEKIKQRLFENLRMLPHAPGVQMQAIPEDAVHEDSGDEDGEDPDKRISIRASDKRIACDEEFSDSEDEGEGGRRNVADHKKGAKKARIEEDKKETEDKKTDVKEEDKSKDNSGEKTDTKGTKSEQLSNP
Sequence of HDAC3 (O15379 whole entry, the tested form may be a part): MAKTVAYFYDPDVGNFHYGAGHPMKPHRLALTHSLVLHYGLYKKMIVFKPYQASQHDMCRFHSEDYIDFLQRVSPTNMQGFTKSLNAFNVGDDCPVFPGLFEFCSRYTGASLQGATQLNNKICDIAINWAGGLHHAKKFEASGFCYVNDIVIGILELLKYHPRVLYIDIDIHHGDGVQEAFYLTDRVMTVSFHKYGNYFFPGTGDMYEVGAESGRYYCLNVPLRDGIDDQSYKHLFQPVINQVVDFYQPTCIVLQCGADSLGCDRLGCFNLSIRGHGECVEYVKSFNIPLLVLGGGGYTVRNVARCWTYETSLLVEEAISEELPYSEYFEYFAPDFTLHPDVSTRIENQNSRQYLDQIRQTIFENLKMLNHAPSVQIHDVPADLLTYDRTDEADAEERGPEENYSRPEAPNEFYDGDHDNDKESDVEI

On to `Cn1cc(-c2ccc(C(=O)Nc3ccccc3N)cc2)c2cc[nH]c2c1=O` [NB462], for which the IC50 (as a rule, the concentration that inhibits the measured activity by half) amounted to 400 ± 30 nM in assay [1] and 2700 ± 300 nM in assay [2]. For the same molecule, the EC50 – broadly, the concentration that produces a half-maximal response – stood at 32000 ± 16000 nM in assay [3], 1600 ± 700 nM in assay [4] (intact cells) and 2600 ± 1100 nM in assay [5] (intact cells). The “inhibition of histone H3 K9/K14 deacetylation (Western blot)” value (“inhibition” below) in assay [6] is on record as “significantly more potent than CI-944”. The “DSF ΔTm BRD4 BD1” value in assay [7] (10 μM compound, 2 μM protein) was determined as 3.9 ± 0.4 K. The ΔTm (as a rule, the change in melting temperature against a reference sample) at 10 µM in assay [7] (read-out: DSF ΔTm BRD4 BD1, 10 μM compound, 2 μM protein) lay in the range of 4 to 5 °C; in assay [8] (read-out: DSF ΔTm BRD4 BD2, 10 μM compound, 2 μM protein), 4 to 5 °C. Further, in assay [7] (10 μM compound), the “Mean Tm BRD4 (1), bromodomain panel” value stood at 3.6 ± 0.1 K. In addition, in assay [8] (10 μM compound, 2 μM protein), the “DSF ΔTm BRD4 BD2” value came out at 4.5 ± 0.1 K. In addition, in assay [8] (10 μM compound), the “Mean Tm BRD4 (2), bromodomain panel” value was 4.6 ± 0.1 K.

As to `Cn1cc(-c2ccc(C(=O)Nc3ccccc3N)nc2)c2cc[nH]c2c1=O` [NB500], the IC50 in assay [1] is 220 ± 20 nM; in assay [2], 3200 ± 400 nM. For the same molecule, the EC50 in assay [3] is over 50000 nM; in assay [4] (intact cells), 2500 ± 700 nM; in assay [5] (intact cells), 4800 ± 2300 nM. Besides, in assay [6], the “inhibition” value is on record as “much less potent”. In addition, the ΔTm at 10 µM in assay [7] (10 μM compound, 2 μM protein, read-out: DSF ΔTm BRD4 BD1) is 4.2 ± 0.4 °C; in assay [8] (10 μM compound, 2 μM protein, read-out: DSF ΔTm BRD4 BD2), 4.7 ± 0.4 °C.

In the case of `Cn1cc(-c2ccc(C(=O)Nc3cc(-c4ccccc4)ccc3N)cc2)c2cc[nH]c2c1=O` [NB503], the results for the IC50 in assay [1] and in assay [2] were 630 ± 80 nM and 2800 ± 200 nM, respectively. In addition, the EC50 in assay [3] was found to be 6500 ± 2800 nM; in assay [4] (intact cells), 360 ± 120 nM; in assay [5] (intact cells) it was 190 ± 30 nM. Further, the “inhibition” value in assay [6] was “concentration-dependent”. In addition, the “Mean Tm BRD4 (1), bromodomain panel” value in assay [7] (10 μM compound) came out at 5.5 ± 0.1 K. In assay [8] (10 μM compound), the “Mean Tm BRD4 (2), bromodomain panel” value is given as 5.3 ± 0.2 K.

Consider `Cn1cc(-c2ccc(C(=O)Nc3cc(-c4ccccc4)ccc3N)nc2)c2cc[nH]c2c1=O` [NB512], for which the IC50 is 420 ± 50 nM in assay [1] and 3600 ± 400 nM in assay [2]. Moreover, the EC50 in assay [3] is 13600 ± 4800 nM; in assay [4] (intact cells) it was 98 nM and 100 nM; in assay [4] (lysed-mode), 37 nM; in assay [5] (intact cells), 110 ± 30 nM; in assay [5] (lysed-mode) it was 27 nM. The “inhibition” value in assay [6] is listed as “more potent inhibitor overall”.
